Laboratory results reported in patent US10370425B2, “Peptide antagonists of the calcitonin CGRP family of peptide hormones and their use” (priority 2012, dated 2019).
Positions of bridges follow the written chain, without caps; N, C: chain ends. Residues, ends and D or L forms follow the SMILES beside them. No end group written: not given here.

Biological target: T1, amylin receptor, AMY1, a CT (calcitonin) receptor/RAMP1 (receptor-activity modifying protein) complex (Homo sapiens, UniProt O60894+P30988)
T1 construct: host or cells: CHO-K1/AMY1/Gα15
Test: Calcium flux assay (FLIPR Calcium 4) of inhibition of α-CGRP stimulation in CHO-K1/AMY1/Gα15 cells
Format: cell-based
Details: CHO-K1/AMY1/Gα15 calcium flux; read-out: IC50 value
Description: Using a calcium flux assay, the dose-dependent inhibitory response of peptide antagonists of the present invention on an amylin receptor, AMY1, a CT (calcitonin) receptor/RAMP1 (receptor-activity modifying protein) complex was determined. The recombinant cell line CHO-K1/AMY1/Gα15 (GenScript, Piscataway, N.J., Catalog No. M00475) was employed in the assay. Peptide antagonist activities were tested, in duplicate, at five different concentrations, starting with 1 μM and serially diluted five-fold, in DMSO. AC187 (SEQ ID NO: 55), a known amylin receptor antagonist (available for example from Tocris Bioscience, Minneapolis, Minn., Catalog No. 3419) was used as a positive control in the assays, and human α-CGRP, a known amylin receptor agonist (SEQ ID NO:56) , (available for example from Tocris Bioscience, Minneapolis, Minn., Catalog No. 3012) was used as a positive control in the assays. The FLIPR® Calcium 4 Assay Kit (Molecular Devices, Sunnyvale, Calif.) was used.
Human α-CGRP having the amino acid sequence, NH2-[…]-NH2 (SEQ ID NO:56) and AC187 having the sequence […] (SEQ ID NO: 55) were employed as negative and positive controls, respectively. Stock solutions were further diluted in HBSS-HEPES buffer to make 5×final control solutions.
CHO-K1/AMY1/Gα15 cells were seeded in a 384-well black wall, clear bottom plate at a density of 20,000 cells/well in 20 μL of growth medium 20 hours prior to the day of the experiment and maintained at 37° C./5% CO2.
Per the assay kit protocol, dye-loading solution (at 2×final concentration) was added into the assay plate, 20 μL per well. Compound solution (at 5 ×final concentration) was added into the assay plate, 10 uL per well. The assay plate was placed into a 37° C. incubator for 1 hour, then left for 15 min at RT. The agonist plate (at 5×EC80 concentration) was placed in Source 2. The total reading time was 120 sec. The agonist was added after 20 seconds reading of the baseline and the fluorescence signal was captured for another 100 seconds (21 s to 120 s).
In screening, cells stimulated with assay buffer were chosen as the background; cells stimulated with agonist (at […] concentration) were chosen as the negative control.
Data were recorded by ScreenWorks (version 3.1) as FMD files and stored on the GenScript computer network for off-line analysis. Data acquisition and analyses was performed using ScreenWorks (version 3.1) program and exported to Excel. The average value of 20 (1 s to 20 s) seconds reading was calculated as the baseline reading and the relative fluorescent units (ΔRFU) intensity values were calculated with the maximal fluorescent units (21 s to 120 s) subtracting the average value of baseline reading.
The IC50 value of AC187 was 8 μM. The inhibitory activity of the tested peptide antagonists was normalized with the negative control (AC187) and reported as % Inhibition, calculated from the following equation: % Inhibition=(ΔRFUcompound−ΔRFUBackground)/(ΔRFUNegative control−ΔRFUBackground) * 100% Inhibition was then plotted along the Y-axis, with the test concentrations as indicated on the X-axis. The peptides were tested at indicated concentrations and stimulated with 32 nM (EC80) α-CGRP (Mean +/− SD, n=2).

T1 sequence (P30988 25-474): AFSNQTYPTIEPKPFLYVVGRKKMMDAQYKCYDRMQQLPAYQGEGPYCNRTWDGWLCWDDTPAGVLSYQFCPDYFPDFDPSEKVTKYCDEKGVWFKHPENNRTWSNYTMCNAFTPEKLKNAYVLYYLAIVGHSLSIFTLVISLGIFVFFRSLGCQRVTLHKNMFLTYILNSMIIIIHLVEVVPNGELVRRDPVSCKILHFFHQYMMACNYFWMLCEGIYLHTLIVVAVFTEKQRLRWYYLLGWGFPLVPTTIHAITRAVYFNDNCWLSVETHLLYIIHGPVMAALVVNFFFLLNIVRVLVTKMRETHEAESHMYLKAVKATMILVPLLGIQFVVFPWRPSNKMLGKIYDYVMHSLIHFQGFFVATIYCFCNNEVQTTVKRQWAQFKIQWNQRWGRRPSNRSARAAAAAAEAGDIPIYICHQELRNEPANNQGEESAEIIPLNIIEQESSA
T1 sequence (O60894 27-148): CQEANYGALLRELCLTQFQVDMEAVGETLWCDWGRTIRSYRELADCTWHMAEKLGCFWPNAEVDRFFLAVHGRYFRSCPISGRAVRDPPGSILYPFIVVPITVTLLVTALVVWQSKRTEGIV

Compound | IC50
VLGKLSQELHKLQTYPRTNTGSNTY [AC187, reference compound] | 8000 nM

Same assay, conditions: at maximal test concentration (series starts with 1 μM); CHO-K1/AMY1/Gα15 cells stimulated with 32 nM (EC80) α-CGRP; n = 2; read-out: % Inhibition @ Maximal concentration (Mean +/− SD, n = 2)

Compound | inhibition at 1 µM
CC(C)C[C@H](NC(=O)[C@H](CCCNC(=N)N)NC(=O)CNC(=O)[C@H](CC(C)C)NC(=O)[C@@H](NC(=O)[C@@H]1CSSC[C@H](NC(=O)[C@H](C)N)C(=O)N[C@@H](C(C)C)C(=O)N[C@@H](CC(C)C)C(=O)NCC(=O)N[C@@H](C)C(=O)N1)C(C)C)C(=O)N[C@@H](CO)C(=O)N[C@@H](CCC(N)=O)C(=O)N[C@@H](CCC(=O)O)C(=O)N[C@@H](CC(C)C)C(=O)N[C@@H](Cc1c[nH]cn1)C(=O)N[C@@H](CCCNC(=N)N)C(=O)N[C@@H](CC(C)C)C(=O)N[C@@H](CCC(N)=O)C(=O)N[C@H](C(=O)N[C@@H](Cc1ccc(O)cc1)C(=O)N1CCC[C@H]1C(=O)N[C@@H](CCCNC(=N)N)C(=O)N[C@H](C(=O)N[C@@H](CC(N)=O)C(=O)N[C@H](C(=O)NCC(=O)N[C@@H](CO)C(=O)N[C@@H](CCCCN)C(=O)N[C@@H](C)C(=O)N[C@@H](Cc1ccccc1)C(N)=O)C(C)C)[C@@H](C)O)[C@@H](C)O [compound 5] (H-ACVLGACVLGRLSQELHRLQTYPRTNVGSKAF-NH2; disulfide 2-7 (inferred)) | 88.5%
CC(C)C[C@H](NC(=O)[C@H](CCCNC(=N)N)NC(=O)CNC(=O)[C@H](CC(C)C)NC(=O)[C@@H](NC(=O)[C@@H]1CSSC[C@H](N)C(=O)N[C@@H](CO)C(=O)N[C@@H](CC(N)=O)C(=O)N[C@@H]([C@@H](C)O)C(=O)N[C@@H](C)C(=O)N[C@@H](C(C)C)C(=O)N1)C(C)C)C(=O)N[C@@H](CO)C(=O)N[C@@H](CCC(N)=O)C(=O)N[C@@H](CCC(=O)O)C(=O)N[C@@H](CC(C)C)C(=O)N[C@@H](Cc1c[nH]cn1)C(=O)N[C@@H](CCCNC(=N)N)C(=O)N[C@@H](CC(C)C)C(=O)N[C@@H](CCC(N)=O)C(=O)N[C@H](C(=O)N[C@@H](Cc1ccc(O)cc1)C(=O)N1CCC[C@H]1C(=O)N[C@@H](CCCNC(=N)N)C(=O)N[C@H](C(=O)N[C@@H](CC(N)=O)C(=O)N[C@H](C(=O)NCC(=O)N[C@@H](CO)C(=O)N[C@@H](CCCCN)C(=O)N[C@@H](C)C(=O)N[C@@H](Cc1ccccc1)C(N)=O)C(C)C)[C@@H](C)O)[C@@H](C)O [compound 12] (H-CSNTAVCVLGRLSQELHRLQTYPRTNVGSKAF-NH2; disulfide 1-7 (inferred)) | 96.1%
CC(C)C[C@H](NC(=O)[C@H](CCCNC(=N)N)NC(=O)CNC(=O)[C@H](CC(C)C)NC(=O)[C@@H](NC(=O)[C@@H]1CSSC[C@H](NC(=O)[C@H](C)N)C(=O)N[C@@H](CC(=O)O)C(=O)N[C@@H]([C@@H](C)O)C(=O)N[C@@H](C)C(=O)N[C@@H](C)C(=O)N1)C(C)C)C(=O)N[C@@H](CO)C(=O)N[C@@H](CCC(N)=O)C(=O)N[C@@H](CCC(=O)O)C(=O)N[C@@H](CC(C)C)C(=O)N[C@@H](Cc1c[nH]cn1)C(=O)N[C@@H](CCCNC(=N)N)C(=O)N[C@@H](CC(C)C)C(=O)N[C@@H](CCC(N)=O)C(=O)N[C@H](C(=O)N[C@@H](Cc1ccc(O)cc1)C(=O)N1CCC[C@H]1C(=O)N[C@@H](CCCNC(=N)N)C(=O)N[C@H](C(=O)N[C@@H](CC(N)=O)C(=O)N[C@H](C(=O)NCC(=O)N[C@@H](CO)C(=O)N[C@@H](CCCCN)C(=O)N[C@@H](C)C(=O)N[C@@H](Cc1ccccc1)C(N)=O)C(C)C)[C@@H](C)O)[C@@H](C)O [compound 1] (H-ACDTAACVLGRLSQELHRLQTYPRTNVGSKAF-NH2; disulfide 2-7 (inferred)) | 94.4%
CC(C)C[C@H](NC(=O)[C@H](CCCNC(=N)N)NC(=O)CNC(=O)[C@H](CC(C)C)NC(=O)[C@@H](NC(=O)[C@@H]1CSSC[C@H](N)C(=O)N[C@@H](CO)C(=O)N[C@@H](CC(N)=O)C(=O)N[C@@H]([C@@H](C)O)C(=O)N[C@@H](C)C(=O)N[C@@H](C)C(=O)N1)C(C)C)C(=O)N[C@@H](CO)C(=O)N[C@@H](CCC(N)=O)C(=O)N[C@@H](CCC(=O)O)C(=O)N[C@@H](CC(C)C)C(=O)N[C@@H](Cc1c[nH]cn1)C(=O)N[C@@H](CCCNC(=N)N)C(=O)N[C@@H](CC(C)C)C(=O)N[C@@H](CCC(N)=O)C(=O)N[C@H](C(=O)N[C@@H](Cc1ccc(O)cc1)C(=O)N1CCC[C@H]1C(=O)N[C@@H](CCCNC(=N)N)C(=O)N[C@H](C(=O)N[C@@H](CC(N)=O)C(=O)N[C@H](C(=O)NCC(=O)N[C@@H](CO)C(=O)N[C@@H](CCCCN)C(=O)N[C@@H](C)C(=O)N[C@@H](Cc1ccccc1)C(N)=O)C(C)C)[C@@H](C)O)[C@@H](C)O [compound 8] (H-CSNTAACVLGRLSQELHRLQTYPRTNVGSKAF-NH2; disulfide 1-7 (inferred)) | 95.4%
CC(C)C[C@H](NC(=O)[C@H](CCCNC(=N)N)NC(=O)CNC(=O)[C@H](CC(C)C)NC(=O)[C@@H](NC(=O)[C@@H]1CSSC[C@H](NC(=O)[C@H](C)N)C(=O)N[C@@H](CC(N)=O)C(=O)N[C@@H](CC(C)C)C(=O)N[C@@H](CO)C(=O)N[C@@H](C)C(=O)N1)C(C)C)C(=O)N[C@@H](CO)C(=O)N[C@@H](CCC(N)=O)C(=O)N[C@@H](CCC(=O)O)C(=O)N[C@@H](CC(C)C)C(=O)N[C@@H](Cc1c[nH]cn1)C(=O)N[C@@H](CCCNC(=N)N)C(=O)N[C@@H](CC(C)C)C(=O)N[C@@H](CCC(N)=O)C(=O)N[C@H](C(=O)N[C@@H](Cc1ccc(O)cc1)C(=O)N1CCC[C@H]1C(=O)N[C@@H](CCCNC(=N)N)C(=O)N[C@H](C(=O)N[C@@H](CC(N)=O)C(=O)N[C@H](C(=O)NCC(=O)N[C@@H](CO)C(=O)N[C@@H](CCCCN)C(=O)N[C@@H](C)C(=O)N[C@@H](Cc1ccccc1)C(N)=O)C(C)C)[C@@H](C)O)[C@@H](C)O [compound 7] (H-ACNLSACVLGRLSQELHRLQTYPRTNVGSKAF-NH2; disulfide 2-7 (inferred)) | 96%
CC(C)C[C@H](NC(=O)[C@H](CCCNC(=N)N)NC(=O)CNC(=O)[C@H](CC(C)C)NC(=O)[C@@H](NC(=O)[C@@H]1CSSC[C@H](NC(=O)[C@H](C)N)C(=O)N[C@@H](CCCNC(=N)N)C(=O)N[C@@H](Cc2ccccc2)C(=O)NCC(=O)N[C@@H](C)C(=O)N1)C(C)C)C(=O)N[C@@H](CO)C(=O)N[C@@H](CCC(N)=O)C(=O)N[C@@H](CCC(=O)O)C(=O)N[C@@H](CC(C)C)C(=O)N[C@@H](Cc1c[nH]cn1)C(=O)N[C@@H](CCCNC(=N)N)C(=O)N[C@@H](CC(C)C)C(=O)N[C@@H](CCC(N)=O)C(=O)N[C@H](C(=O)N[C@@H](Cc1ccc(O)cc1)C(=O)N1CCC[C@H]1C(=O)N[C@@H](CCCNC(=N)N)C(=O)N[C@H](C(=O)N[C@@H](CC(N)=O)C(=O)N[C@H](C(=O)NCC(=O)N[C@@H](CO)C(=O)N[C@@H](CCCCN)C(=O)N[C@@H](C)C(=O)N[C@@H](Cc1ccccc1)C(N)=O)C(C)C)[C@@H](C)O)[C@@H](C)O [compound 6] (H-ACRFGACVLGRLSQELHRLQTYPRTNVGSKAF-NH2; disulfide 2-7 (inferred)) | 93.9%
CC(C)C[C@H](NC(=O)CNC(=O)[C@H](C)NC(=O)[C@H](CC(C)C)NC(=O)[C@H](CCCNC(=N)N)NC(=O)[C@H](Cc1c[nH]cn1)NC(=O)[C@@H](NC(=O)[C@@H](NC(=O)[C@@H]1CSSC[C@H](NC(=O)[C@H](C)N)C(=O)N[C@@H](CC(=O)O)C(=O)N[C@@H]([C@@H](C)O)C(=O)N[C@@H](C)C(=O)N[C@@H](C)C(=O)N1)C(C)C)[C@@H](C)O)C(=O)N[C@@H](CC(C)C)C(=O)N[C@@H](CO)C(=O)N[C@@H](CCCNC(=N)N)C(=O)N[C@@H](CO)C(=O)NCC(=O)NCC(=O)N[C@H](C(=O)N[C@H](C(=O)N[C@@H](CCCCN)C(=O)N[C@@H](CC(N)=O)C(=O)N[C@@H](CC(N)=O)C(=O)N[C@@H](Cc1ccccc1)C(=O)N[C@H](C(=O)N1CCC[C@H]1C(=O)N[C@H](C(=O)N[C@@H](CC(N)=O)C(=O)N[C@H](C(=O)NCC(=O)N[C@@H](CO)C(=O)N[C@@H](CCCCN)C(=O)N[C@@H](C)C(=O)N[C@@H](Cc1ccccc1)C(N)=O)C(C)C)[C@@H](C)O)C(C)C)C(C)C)C(C)C [compound 15] | 23.3%

Same assay, conditions: positive control; CHO-K1/AMY1/Gα15 cells stimulated with α-CGRP; read-out: IC50 nM (assay positive control)

Compound | IC50
VLGKLSQELHKLQTYPRTNTGSNTY [AC187, reference compound] | 8150 nM
